Series [1] concerns vemurafenib sensitive and resistant A375 melanoma cells. Put plainly: in vitro anti-tumor efficacy in A375 melanoma cells. It counts as cell-based. The following applies: A375 cells, Usp5 knockdown. An excerpt: Similar results were obtained in A375R Usp5 KD cells treated with a MEK inhibitor.
The target of series [2] is Usp9x (Homo sapiens, UniProt Q93008). Put plainly: DUB activity (HA-Ub vinyl-sulfone labelling) in lysates of treated intact cells. Conditions: Z138 lymphoma cells, 1.25, 2.5 and 5 μM, 4 hours. Type of series: cell-based. Details: endogenous in cells; host or cells: Z138 lymphoma, MM1.S/MM1.ST myeloma, primary PCL cells, A375 and vemurafenib-resistant A375 melanoma. The method, then: In brief, control and treated cells were lysed by sonication in DUB assay buffer [50 mM Tris-HCl (pH 7.5), 5 mM MgCl2, 250 mM sucrose, 1 mM PMSF, 1× Roche proteinase inhibitory cocktail] and 20 μg of protein from the supernatant fraction (after a 14,000×g spin) were incubated with 200 nM HA-Ub vinyl-sulfone (Boston Biochem) in a final volume of 20 μl. After 90 min at 37° C., reactions were stopped with the addition of 5×-sample buffer. DUB activity was detected by SDS-PAGE resolution of the protein followed by nitrocellulose membrane transfer and immunoblotting with anti-HA.
The time required for G9-mediated Usp9x inhibition in intact multiple myeloma (MM1.S) cells and primary tumor cells from a patient with plasma cell leukemia (PCL) was investigated. MM1.ST (FIG. 1, left) or PCL (FIG. 1, right) cells were treated with 5 μM of compound for the time indicated before Usp9x activity was assessed as described above.

Series [3] deals with T1, catalytic domain of Usp9x (Usp9xCD) (Homo sapiens, UniProt Q93008).
T1 construct: DNA corresponding to amino acids 1553-1960 of human Usp9x; His6-Smt3 (SUMO) fusion tag, ULP1-cleavable (N, cleaved yes); made in house; host or cells: E. coli
T1 sequence (Q93008 1553-1960): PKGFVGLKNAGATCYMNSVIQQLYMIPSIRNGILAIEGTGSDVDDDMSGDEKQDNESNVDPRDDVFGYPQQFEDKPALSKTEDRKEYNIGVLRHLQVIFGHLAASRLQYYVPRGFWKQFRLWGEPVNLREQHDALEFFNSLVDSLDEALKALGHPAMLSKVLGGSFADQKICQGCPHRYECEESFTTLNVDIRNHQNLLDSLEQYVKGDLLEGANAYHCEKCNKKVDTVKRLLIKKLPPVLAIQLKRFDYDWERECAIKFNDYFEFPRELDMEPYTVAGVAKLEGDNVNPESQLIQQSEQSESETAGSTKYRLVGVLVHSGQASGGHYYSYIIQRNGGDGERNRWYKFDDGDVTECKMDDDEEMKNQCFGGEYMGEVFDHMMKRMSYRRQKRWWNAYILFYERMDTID
Put plainly: Usp9xCD Ub-AMC enzyme assay. It counts as biochemical. Conditions: 300 nM Usp9xCD, 30 min at 37° C. with inhibitor, 1.5 μM Ub-AMC. The method, then: A series of chemical modifications were initiated to increase our structure activity relationship (SAR) analysis of inhibitors. […] The DNA was cloned into a ULP1-protease cleavable N-terminal His6-Smt3-fusion tag expression vector, derived from pET-28. Protein expression was induced at OD600 2.0, in TB media with Kanamycin overnight at 16° C. Cells were harvested and flash frozen before use. […] Protein was concentrated to roughly 20-40 mg/ml before aliquots were flash-frozen. All steps were performed in the presence of reducing agents, either BME, DTT, or TCEP.
Purified recombinant enzyme in buffer containing 2 mM DTT was buffer exchanged into 25 mM Tris-HCl, 50 mM NaCl and 1 mg/ml BSA using a spin column. […] IC50 values were estimated by integrating the slope of each reaction using GraphPad 6.
Two hundred and ten (210) novel chemical structures were screened for Usp9xCD inhibitory activity using this assay. […] Fluorescent scans were used to assess Usp9xCD inhibitory activity in this enzyme assay for all compounds of interest. Each assay was performed in duplicate and the linear region of each reaction curve was used to calculate IC50 values for Usp9xCD inhibition which are tabulated in Table 1.

Series [4] in a line: aqueous solubility. Type of series: physicochemical.
The conditions of series [5]: background statement; cited from earlier work.
Series [6] relates to Mcl-1, PARP. Put plainly: Mcl-1 level and PARP cleavage in treated tumor cells. Type of series: cell-based. Conditions: Z138 lymphoma cells, 1.25, 2.5 and 5 μM, 4 hours.

The text below walks through data of patent US9868736B2, “Deubiquitinase inhibitors and methods for use of the same” (THE REGENTS OF THE UNIVERSITY OF MICHIGAN, priority 2013, dated 2018).

Broadly, the pIC50 is the IC50 on a negative log10 scale, so that one unit is a factor of ten. Lower therefore signals a large IC50. As a reminder, the solubility is the dissolved amount per volume that the medium holds.

pIC50: −log10 of the molar value. ≈ marks a conversion by molar mass, not a printed value. Like-named read-outs stand apart in the source and are kept apart here.

Chain of Usp9x (Q93008 whole entry): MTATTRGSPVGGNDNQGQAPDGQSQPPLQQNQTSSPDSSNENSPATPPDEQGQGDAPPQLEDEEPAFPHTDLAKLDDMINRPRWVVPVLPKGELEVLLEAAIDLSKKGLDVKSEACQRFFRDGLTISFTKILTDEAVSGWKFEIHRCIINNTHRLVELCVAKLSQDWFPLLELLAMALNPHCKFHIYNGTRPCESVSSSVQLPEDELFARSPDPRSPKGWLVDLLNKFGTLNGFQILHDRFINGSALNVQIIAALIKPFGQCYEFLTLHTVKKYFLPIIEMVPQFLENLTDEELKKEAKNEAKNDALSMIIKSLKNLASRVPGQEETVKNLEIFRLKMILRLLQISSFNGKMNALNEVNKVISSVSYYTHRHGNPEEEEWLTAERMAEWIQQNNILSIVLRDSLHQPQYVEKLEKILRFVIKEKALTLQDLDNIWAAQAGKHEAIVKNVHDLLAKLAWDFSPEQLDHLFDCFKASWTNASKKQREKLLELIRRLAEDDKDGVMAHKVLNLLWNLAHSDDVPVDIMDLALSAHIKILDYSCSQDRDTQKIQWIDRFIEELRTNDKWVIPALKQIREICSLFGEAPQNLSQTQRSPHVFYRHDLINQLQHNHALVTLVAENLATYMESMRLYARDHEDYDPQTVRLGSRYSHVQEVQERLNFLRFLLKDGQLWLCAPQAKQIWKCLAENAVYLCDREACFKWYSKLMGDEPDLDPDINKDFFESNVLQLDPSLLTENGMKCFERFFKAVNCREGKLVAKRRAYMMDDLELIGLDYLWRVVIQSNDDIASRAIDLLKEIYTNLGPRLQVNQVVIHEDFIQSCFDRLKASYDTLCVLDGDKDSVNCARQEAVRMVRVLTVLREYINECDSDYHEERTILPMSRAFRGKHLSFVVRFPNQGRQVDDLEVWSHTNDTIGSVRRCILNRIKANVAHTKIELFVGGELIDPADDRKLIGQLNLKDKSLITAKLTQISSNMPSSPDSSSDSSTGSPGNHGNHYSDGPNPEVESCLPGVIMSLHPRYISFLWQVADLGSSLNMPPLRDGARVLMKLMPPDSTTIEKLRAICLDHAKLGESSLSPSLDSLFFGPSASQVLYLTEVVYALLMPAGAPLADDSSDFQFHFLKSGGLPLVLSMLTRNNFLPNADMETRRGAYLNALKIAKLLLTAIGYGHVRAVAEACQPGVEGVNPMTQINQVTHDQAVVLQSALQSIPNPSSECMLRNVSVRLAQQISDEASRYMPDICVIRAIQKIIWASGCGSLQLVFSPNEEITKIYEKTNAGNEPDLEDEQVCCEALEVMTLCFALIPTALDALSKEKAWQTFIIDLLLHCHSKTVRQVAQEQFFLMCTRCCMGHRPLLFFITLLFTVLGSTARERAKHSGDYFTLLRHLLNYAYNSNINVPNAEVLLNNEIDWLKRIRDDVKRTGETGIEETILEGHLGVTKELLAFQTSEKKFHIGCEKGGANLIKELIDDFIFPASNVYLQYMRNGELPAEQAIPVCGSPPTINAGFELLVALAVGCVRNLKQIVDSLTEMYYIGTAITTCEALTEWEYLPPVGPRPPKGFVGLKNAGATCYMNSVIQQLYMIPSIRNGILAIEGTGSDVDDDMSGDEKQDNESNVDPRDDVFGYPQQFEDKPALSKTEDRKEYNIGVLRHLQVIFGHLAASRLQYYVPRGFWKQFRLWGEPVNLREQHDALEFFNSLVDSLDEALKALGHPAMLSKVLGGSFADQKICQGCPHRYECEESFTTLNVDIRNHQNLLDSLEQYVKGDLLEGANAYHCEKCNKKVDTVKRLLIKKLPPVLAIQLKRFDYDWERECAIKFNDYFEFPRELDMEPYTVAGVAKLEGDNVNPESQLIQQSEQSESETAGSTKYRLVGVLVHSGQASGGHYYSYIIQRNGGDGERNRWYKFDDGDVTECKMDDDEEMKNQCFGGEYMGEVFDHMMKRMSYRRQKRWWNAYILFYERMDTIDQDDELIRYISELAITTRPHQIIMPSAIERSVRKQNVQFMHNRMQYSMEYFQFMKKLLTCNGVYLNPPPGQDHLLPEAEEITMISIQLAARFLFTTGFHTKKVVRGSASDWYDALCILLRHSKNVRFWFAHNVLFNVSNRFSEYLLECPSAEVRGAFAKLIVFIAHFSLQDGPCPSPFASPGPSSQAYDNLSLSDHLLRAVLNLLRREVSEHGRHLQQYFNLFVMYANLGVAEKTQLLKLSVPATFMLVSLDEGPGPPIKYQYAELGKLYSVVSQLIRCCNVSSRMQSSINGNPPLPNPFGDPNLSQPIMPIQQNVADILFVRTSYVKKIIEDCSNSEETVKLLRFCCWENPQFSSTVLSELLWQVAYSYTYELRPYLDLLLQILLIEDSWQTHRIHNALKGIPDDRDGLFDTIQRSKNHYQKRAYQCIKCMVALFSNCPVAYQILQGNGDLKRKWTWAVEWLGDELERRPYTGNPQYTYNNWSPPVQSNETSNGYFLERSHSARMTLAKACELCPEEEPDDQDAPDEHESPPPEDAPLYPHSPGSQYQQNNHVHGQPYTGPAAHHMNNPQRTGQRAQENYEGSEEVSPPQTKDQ

For `CCCS(=O)(=O)Nc1ccc(F)c(C(=O)c2c[nH]c3ncc(-c4ccc(Cl)cc4)cc23)c1F` [vemurafenib, reference compound], the “reduction of the vemurafenib IC50 concentration by Usp5 KD” value in series [1] was “about 2 fold”.

Regarding `CCC[C@H](NC(=O)/C(C#N)=C/c1cccc(Br)n1)c1ccccc1` [WP1130, reference compound], the “Usp9x activity in intact cells” value in series [2] was “able to inhibit Usp9x activity in intact cells”. The pIC50 in series [3] was 5.32. The figures for the solubility in series [4] and in series [5] were 2.6 µM (≈ 0.999 µg/mL) and “poor solubility”, respectively. The “level of Mcl-1” value in series [6] is listed as “reduce the level of a downstream target of Usp9x”.

With `CCCC(NC(=O)/C(C#N)=C/c1nc(Cl)ccc1Cl)c1ccc(OCCN2CCOCC2)cc1` (stereo not shown) [drawing 26], the pIC50 in series [3] was 5.80.
